Test results from patent US11535643B2, “Macrolides with modified desosamine sugars and uses thereof” (President and Fellows of Harvard College, priority 2015, dated 2022).
Values after ≈ are worked out from the molar mass of the structure shown.

What was measured:
Type in all cases: cell-based
E. coli = experiment: Broth dilution MIC determination (CLSI) against E. coli strains
Description: (§1) Minimum inhibitory concentrations (MICs) for macrolides described herein have been determined for unique strains of S. aureus, S. pneumoniae, S. pyogenes, E. faecalis, E. coli, A. baumannii, K. pneumoniae, P. aeruginosa, and H. influenzae, including several multidrug-resistant strains, with a special focus on macrolide resistant mechanisms. Azithromycin and solithromycin were included as control compounds. CLSI standard procedures for broth dilution MIC determination were used. Data for exemplary compounds described herein is shown in Tables M1-M7 and in Tables N1-N4.

S. pyogenes = experiment: Broth dilution MIC determination (CLSI) against S. pyogenes strains
Description: as §1

S. aureus = experiment: Broth dilution MIC determination (CLSI) against S. aureus strains
Description: as §1

K. pneumoniae = experiment: Broth dilution MIC determination (CLSI) against K. pneumoniae strains
Description: as §1, with “used.” for “used. Data for exemplary compounds described herein is shown in Tables M1-M7 and in Tables N1-N4.”

P. aeruginosa = experiment: Broth dilution MIC determination (CLSI) against P. aeruginosa strains
Description: as §1

E. faecalis = experiment: Broth dilution MIC determination (CLSI) against E. faecalis strains
Description: as §1

S. pneumoniae = experiment: Broth dilution MIC determination (CLSI) against S. pneumoniae strains
Description: as §1

A. baumannii = experiment: Broth dilution MIC determination (CLSI) against A. baumannii strains
Description: as §1

[1] = E. coli ATCC25922, strain MP-4 (Table N2)
[2] = E. coli ATCC25922:tolC, strain MP-9 (Table N2)
[3] = E. coli clinical, strain MP541 (Table N2)
[4] = E. coli clinical-cErm, strain MP532 (Table N2)
[5] = S. pyogenes ATCC19615, strain MP-19 (Table N2)
[6] = S. pyogenes mac resistant, strain MP-625 UNT-014 (Table N2)
[7] = S. aureus (MRSA) GISA USA600, strain MP-619 UNT-120 (Table N2)
[8] = S. aureus (MRSA) ST-228 cErm, strain MP-513 (Table N2)
[9] = S. aureus (MRSA) USA100, strain MP-618 UNT-096 (Table N2)
[10] = S. aureus (MRSA) USA300, strain MP-549 (Table N2)
[11] = S. aureus (MRSA) ermA phenotype, strain MP-620 UNT-146 (Table N2)
[12] = S. aureus ATCC29213, strain MP-12 (Table N2)
[13] = S. aureus ATCCBAA-977, strain MP-17 (Table N2)
[14] = K pneumomae ATCC10031, strain MP-14 (Table N2)
[15] = K. pneumoniae clinical, strain MP546 (Table N2)
[16] = K. pneumoniae clinical, strain MP548 (Table N2)
[17] = P. aeruginosa ATCC27853, strain MP-3 (Table N2)
[18] = P. aeruginosa PAO1, strain MP-7 (Table N2)
[19] = P. aeruginosa PAO1:mex, strain MP-8 (Table N2)
[20] = E. faecalis ATCC29212, strain MP-24 (Table N2)
[21] = E. faecalis van resistant, strain UNT-039 (Table N2)
[22] = S. pneumoniae ATCC49619, strain MP-21 (Table N2)
[23] = S. pneumoniae mefA, strain MP-626 UNT-038 (Table N2)
[24] = S. pneumoniae mefA, strain MP-627 UNT-039 (Table N2)
[25] = A. baumannii ATCC19606, strain MP-15 (Table N2)
[26] = A. baumannii clinical, strain MP576 (Table N2)
[27] = A. baumannii clinical, strain MP577 (Table N2)

CCC1OC(=O)C(C)C(=O)C(C)C(OC2OC(C)CC(NCC#N)C2O)C(C)(OC)CC(C)CNC(C)C2N(CCCCn3cc(-c4cccc(N)c4)nn3)C(=O)OC12C (stereo not drawn) [FSM-120369]
MIC E. coli ATCC25922 (E. coli; ATCC25922, Strain No. MP-4): >64 µg/mL
MIC E. coli ATCC25922:tolC (E. coli; ATCC25922:tolC, Strain No. MP-9): >64 µg/mL
MIC E. coli clinical (E. coli; clinical, Strain No. MP541): >64 µg/mL
MIC E. coli clinical-cErm (E. coli; clinical-cErm, Strain No. MP532): >64 µg/mL
MIC S. pyogenes ATCC19615 (S. pyogenes; ATCC19615, Strain No. MP-19): 0.5 µg/mL (≈ 0.596 µM)
MIC S. pyogenes mac resistant (S. pyogenes; mac resistant, Strain No. MP-625 UNT-014): 2 µg/mL (≈ 2.38 µM)
MIC S. aureus ATCC29213 (S. aureus; ATCC29213, Strain No. MP-12): 32 µg/mL (≈ 38.1 µM)
MIC S. aureus ATCCBAA-977 (S. aureus; ATCCBAA-977, Strain No. MP-17): 32 µg/mL (≈ 38.1 µM)
MIC S. aureus (MRSA) GISA USA600 (S. aureus; GISA USA600, Strain No. MP-619 UNT-120): >64 µg/mL
MIC S. aureus (MRSA) ST-228 cErm (S. aureus; ST-228 cErm, Strain No. MP-513): >64 µg/mL
MIC S. aureus (MRSA) USA100 (S. aureus; USA100, Strain No. MP-618 UNT-096): >64 µg/mL
MIC S. aureus (MRSA) USA300 (S. aureus; USA300, Strain No. MP-549): 32 µg/mL (≈ 38.1 µM)
MIC S. aureus (MRSA) ermA phenotype (S. aureus; ermA phenotype, Strain No. MP-620 UNT-146): >64 µg/mL
MIC K. pneumoniae ATCC10031 (K. pneumoniae; ATCC10031, Strain No. MP-14): 16 µg/mL (≈ 19.1 µM)
MIC K. pneumoniae clinical (K. pneumoniae; Strain No. MP546): >64 µg/mL
MIC K. pneumoniae clinical (K. pneumoniae; Strain No. MP548): >64 µg/mL
MIC P. aeruginosa ATCC27853 (P. aeruginosa; ATCC27853, Strain No. MP-3): >64 µg/mL
MIC P. aeruginosa PAO1 (P. aeruginosa; PAO1, Strain No. MP-7): >64 µg/mL
MIC P. aeruginosa PAO1:mex (P. aeruginosa; PAO1:mex, Strain No. MP-8): >64 µg/mL
MIC E. faecalis ATCC29212 (E. faecalis; ATCC29212, Strain No. MP-24): 4 µg/mL (≈ 4.77 µM)
MIC E. faecalis van resistant (E. faecalis; van resistant, Strain No. UNT-039): >64 µg/mL
MIC S. pneumoniae ATCC49619 (S. pneumoniae; ATCC49619, Strain No. MP-21): 0.5 µg/mL (≈ 0.596 µM)
MIC S. pneumoniae mefA (S. pneumoniae; Strain No. MP-626 UNT-038): 0.25 µg/mL (≈ 0.298 µM)
MIC S. pneumoniae mefA (S. pneumoniae; Strain No. MP-627 UNT-039): 0.25 µg/mL (≈ 0.298 µM)
MIC A. baumannii ATCC19606 (A. baumannii; ATCC19606, Strain No. MP-15): >64 µg/mL
MIC A. baumannii clinical (A. baumannii; Strain No. MP576): >64 µg/mL
MIC A. baumannii clinical (A. baumannii; Strain No. MP577): >64 µg/mL

CCC1OC(=O)C(C)C(=O)C(C)C(OC2OC(C)CC(N(C)CC#N)C2O)C(C)(OC)CC(C)CNC(C)C2N(CCCCn3cc(-c4cccc(N)c4)nn3)C(=O)OC12C (stereo not drawn) [FSM-120371]
MIC (E. coli; [1]): 64 µg/mL (≈ 75 µM)
MIC (E. coli; [2]): 16 µg/mL (≈ 18.8 µM)
MIC (E. coli; [3]): 64 µg/mL (≈ 75 µM)
MIC (E. coli; [4]): >64 µg/mL
MIC (S. pyogenes; [5]): 0.125 µg/mL (≈ 0.147 µM)
MIC (S. pyogenes; [6]): 1 µg/mL (≈ 1.17 µM)
MIC (S. aureus; [7]): >64 µg/mL
MIC (S. aureus; [8]): >64 µg/mL
MIC (S. aureus; [9]): >64 µg/mL
MIC (S. aureus; [10]): 64 µg/mL (≈ 75 µM)
MIC (S. aureus; [11]): >64 µg/mL
MIC (S. aureus; [12]): 32 µg/mL (≈ 37.5 µM)
MIC (S. aureus; [13]): 32 µg/mL (≈ 37.5 µM)
MIC (K. pneumoniae; [14]): 8 µg/mL (≈ 9.38 µM)
MIC (K. pneumoniae; [15]): >64 µg/mL
MIC (K. pneumoniae; [16]): >64 µg/mL
MIC (P. aeruginosa; [17]): >64 µg/mL
MIC (P. aeruginosa; [18]): >64 µg/mL
MIC (P. aeruginosa; [19]): 32 µg/mL (≈ 37.5 µM)
MIC (E. faecalis; [20]): 4 µg/mL (≈ 4.69 µM)
MIC (E. faecalis; [21]): 64 µg/mL (≈ 75 µM)
MIC (S. pneumoniae; [22]): 0.25 µg/mL (≈ 0.293 µM)
MIC (S. pneumoniae; [23]): 0.25 µg/mL (≈ 0.293 µM)
MIC (S. pneumoniae; [24]): 0.5 µg/mL (≈ 0.586 µM)
MIC (A. baumannii; [25]): 32 µg/mL (≈ 37.5 µM)
MIC (A. baumannii; [26]): >64 µg/mL
MIC (A. baumannii; [27]): >64 µg/mL

CCC1OC(=O)C(C)C(=O)C(C)C(OC2OC(C)CC(N(CCO)CCO)C2O)C(C)(OC)CC(C)CNC(C)C2N(CCCCn3cc(-c4cccc(N)c4)nn3)C(=O)OC12C (stereo not drawn) [FSM-120379]
MIC (E. coli; [1]): >64 µg/mL
MIC (E. coli; [2]): 32 µg/mL (≈ 36 µM)
MIC (E. coli; [3]): >64 µg/mL
MIC (E. coli; [4]): >64 µg/mL
MIC (S. pyogenes; [5]): 4 µg/mL (≈ 4.5 µM)
MIC (S. pyogenes; [6]): 16 µg/mL (≈ 18 µM)
MIC (S. aureus; [7]): >64 µg/mL
MIC (S. aureus; [8]): >64 µg/mL
MIC (S. aureus; [9]): >64 µg/mL
MIC (S. aureus; [10]): >64 µg/mL
MIC (S. aureus; [11]): >64 µg/mL
MIC (S. aureus; [12]): >64 µg/mL
MIC (S. aureus; [13]): >64 µg/mL
MIC (K. pneumoniae; [14]): 32 µg/mL (≈ 36 µM)
MIC (K. pneumoniae; [15]): >64 µg/mL
MIC (K. pneumoniae; [16]): >64 µg/mL
MIC (P. aeruginosa; [17]): >64 µg/mL
MIC (P. aeruginosa; [18]): >64 µg/mL
MIC (P. aeruginosa; [19]): >64 µg/mL
MIC (E. faecalis; [20]): 32 µg/mL (≈ 36 µM)
MIC (E. faecalis; [21]): >64 µg/mL
MIC (S. pneumoniae; [22]): 2 µg/mL (≈ 2.25 µM)
MIC (S. pneumoniae; [23]): 1 µg/mL (≈ 1.13 µM)
MIC (S. pneumoniae; [24]): 1 µg/mL (≈ 1.13 µM)
MIC (A. baumannii; [25]): >64 µg/mL
MIC (A. baumannii; [26]): >64 µg/mL
MIC (A. baumannii; [27]): >64 µg/mL
